Literature values, collected in article PMC11584006, “Structural characterization and AlphaFold modeling of human T cell receptor recognition of NRAS cancer neoantigens” (Science Advances, 2024).

System: T cells transduced with these TCRs
Details: for peptide concentration at which TCR-transduced T cells can be activated: APCs pulsed with peptide, wild-type tested at >1000-fold higher concentrations
Description: KRAS is the most highly mutated RAS isoform across cancers, accounting for ~85% of all RAS mutations with especially high frequencies in pancreatic and colorectal cancers ([12], [13]). However, NRAS mutations dominate in melanomas, with mutations at position 61 appearing in ~20% of patients ([14]). The two most frequent mutations are Q61K and Q61R ([15]). Mutant NRAS melanomas have more aggressive clinical features and poorer outcomes compared to nonmutant NRAS melanomas ([16]–[18]). […] This HLA-A*01:01–restricted TCR recognizes the NRAS^Q61K and NRAS^Q61R neoepitopes using gene segments TRDV1 and TRAJ27-1 for the α chain and TRBV27 and TRBJ2-5 for the β chain. […] Recombinant TCR and pMHC proteins were expressed by in vitro folding from bacterial inclusion bodies. Biotinylated wild-type NRAS–HLA-A1, NRAS ...

Sequence	peptide concentration at which TCR-transduced T cells can be activated	concentration of peptide required for recognition (peptide titrations), relative to NRAS^Q61K (peptide titrations, HLA-A*01:01)
ILDTAGKEEY [NRAS^Q61K, NRAS^Q61K peptide ([…]), residues 55 to 64]	subnanomolar	
ILDTAGQEEY [wild-type NRAS peptide, reference compound]	do not respond	
ILDTAGREEY [NRAS^Q61R, NRAS^Q61R peptide ([…])]	subnanomolar	a higher concentration
